According to patent US5585381A, “Pyrimidine derivatives and pharmaceutical composition” (Kureha Chemical Industry Co., Ltd., priority 1994, dated 1996):
Where two headings read alike, the source gives them in different places.

Columns and labels:
[1] = test system: kidney disease model rats; conditions: cited from earlier work
[2] = test system: kidney disease model rats; assay: Action to depress blood pressure in kidney disease model rats (tail cuff); type: in vivo, Sprague-Dawley female rats; conditions: 20 mg/kg per os
Experimental: (§1) The compounds of the present invention and the reference substance were forcedly administered per os to kidney disease model rats, and the action to depress blood pressure was observed. The kidney disease model rats were prepared by ligature of branches of renal artery in accordance with the conventional method, that is, the left hilum renalis of Sprague-Dawley female rats was exposed under anesthesia, and one of four secondary branches of renal artery was left unligated, while the remaining three branches were ligated, respectively. After a week, the hilum renalis (artery, vein, and ureter) of the right kidney were further ligated to thereby prepare the rats whose renal function was lowered to approximately 1/8 of the normal function. Each group consisted of eight rats. The drugs to be tested (20 mg/kg) were administered to each administering group, and only water was administered to control group. After two days from the administration, the systolic blood pressure was measured by the tail cuff method using a blood pressure measuring apparatus (UR5000; Ueda).

hyperlipemia model rats = conditions: cited from earlier work
[3] = test system: renal dysfunction model rats; conditions: cited from earlier work
[4] = target: T1, angiotensin II receptor subtype 1 (AT1) (Oryctolagus cuniculus, UniProt P34976); assay: Binding to angiotensin II receptor subtype 1 (AT1); set-up: species or system rabbits (adrenal glands); conditions: 100 μM; 3H-angiotensin II tracer
T1 construct: from adrenal glands in rabbits; from tissue; host or cells: rabbit adrenal glands
T1 sequence (P34976 1-359): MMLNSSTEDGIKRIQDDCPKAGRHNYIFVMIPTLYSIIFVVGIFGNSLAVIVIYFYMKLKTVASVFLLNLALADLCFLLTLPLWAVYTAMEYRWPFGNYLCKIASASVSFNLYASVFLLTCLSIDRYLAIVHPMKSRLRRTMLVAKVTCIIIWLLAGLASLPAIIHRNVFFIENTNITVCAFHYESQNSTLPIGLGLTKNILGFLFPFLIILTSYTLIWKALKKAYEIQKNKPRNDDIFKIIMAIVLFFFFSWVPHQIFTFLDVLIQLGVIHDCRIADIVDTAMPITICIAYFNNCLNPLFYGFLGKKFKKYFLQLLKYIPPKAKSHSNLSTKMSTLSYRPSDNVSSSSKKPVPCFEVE
Experimental: (§2) In this Example, the affinity to the angiotensin II receptor subtype 1 or subtype 2 was evaluated by a binding assay in accordance with the method described in Biochem. Pharmacol., 33, 4057-4062 (1984).
(§3) Specifically, the measurement of the total binding in the presence of each drug was performed as follows:
(§4) A mixture (final volume=0.25 ml) of a drug in a given concentration (the drug was dissolved in DMSO, and diluted to a double volume with a buffer attached to a drug discovery system to prepare sample for the assay; 0,025 ml), a tracer (0.025 ml), and receptors (0.2 ml) was incubated [in the case of the angiotensin II receptor subtype 1 (AT1), at room temperature for 3 hours, and in the case of the subtype 2 (AT2), at 37° C. for 1 hour]. Then, the reaction mixture was filtered with suction (GF/C filter was used in AT1, and GF/B filter was used in AT2). The filter papers after filtration with suction (the tracer bound to the receptors) were counted by a γ-well counter (ARC-500, Aloka). The non-specific bindings were measured by repeating the above method, except that a large excess amount of a displacer was added. The specific binding of the drug in the given concentration was calculated by subtracting the non-specific binding from the total binding, respectively.
(§5) In AT1 and AT2, the percentages to inhibit the bindings of radioactive ligands (tracer) to receptors by the drugs to be tested (IC50 value of concentration to show 50% inhibition, or binding inhibition % in 100 μM) were measured, using the drugs to be tested and control drugs in the given concentration.

[5] = test system: kidney disease model rats; assay: Action to survival time of kidney diseased animals; type: in vivo, Sprague-Dawley female rats; conditions: 20 mg/kg/day per os; observation eight weeks (upper limit); control 5.0
Experimental: as §1
The kidney disease model rats were prepared as in Example 21. Fifteen groups (8 rats per group) were prepared in a manner so that there was no major difference between the groups in the serum creatinine value and the urea nitrogen value indicating renal function. The rats in each group were allowed to freely take up feed and water. […] To the rats in the control group, only water was forcedly administered per os every day. If kidney diseases are aggravated, the rat will die of uremia. Thus, the survival time was observed as comprehensive indication of the improvement effect on the kidney diseases. The observation period was eight weeks. Thus if all rats survived, the average survival time is eight weeks and it is an upper limit.

[6] = Acute toxicity, single oral dose in mice; type: in vivo, ICR female mice; conditions: 500 mg/kg single oral dose, 6 days, 5 per group
Experimental: Five-week-old ICR female mice (5 mice per group) were bred for acclimation for a week. Then, the compounds of the present invention were dissolved or dispersed in an aqueous solution of 0.5% methylcellulose, and orally administered to the mice in a single dosage (500 mg/kg).

[7] = test system: kidney disease model rats; assay: Renal function indicatory value (action to kidney diseases); type: in vivo, Sprague-Dawley female rats; conditions: 20 mg/kg/day per os, two weeks
Experimental: The kidney disease model rats were prepared by ligature of branches of renal artery in accordance with the conventional method, that is, the left hilum renalis of Sprague-Dawley female rats was exposed under anesthesia, and one of four secondary branches of renal artery was left unligated, while the remaining three branches were ligated, respectively. […] Each group consisted of eight rats. The drugs to be tested (20 mg/kg) were administered to each administering group, and only water was administered to control group. After two days from the administration, the systolic blood pressure was measured by the tail cuff method using a blood pressure measuring apparatus (UR5000; Ueda).
The kidney disease model rats were prepared as in Example 21. Fifteen groups (8 rats per group) were sleeked in a manner so that there were no major differences between each group in the serum creatinine value and the urea nitrogen value indicating renal function. The rats in each group were allowed to freely take up feed and water. […] To the rats in the control group, only water was forcedly administered per os every day. After two weeks, 0.2 ml of blood was collected from the carotid artery of the rat under anesthesia, and centrifuged to obtain serum. Using 25 μl of the serum, serum creatinine (Scr) was measured by a creatinine analytical instrument (Beckman). Using 10 μl of the serum, urea nitrogen (BUN) was measured by a BUN analytical instrument (Beckman). Creatinine clearance was evaluated as follows:
After serum creatinine measurement, rats were placed in urinary metabolic cages for 24 hours to collect urine. Urinary creatine concentration (Ucr) was measured by a creatinine analytical instrument, and total volume of urination (Uvol) was also measured. Creatinine clearance (CCr) was calculated by the following formula: [formula]

[8] = target: T2, angiotensin II receptor subtype 2 (AT2) (Bos taurus, UniProt G5E6F7); assay: Binding to angiotensin II receptor subtype 2 (AT2); set-up: species or system bovine (cerebellar cortex); conditions: 125I-Tyr4-angiotensin II tracer, 37° C., 1 hour
T2 construct: from cerebellar cortex in bovine; from tissue; host or cells: bovine cerebellar cortex
T2 sequence (G5E6F7 1-362): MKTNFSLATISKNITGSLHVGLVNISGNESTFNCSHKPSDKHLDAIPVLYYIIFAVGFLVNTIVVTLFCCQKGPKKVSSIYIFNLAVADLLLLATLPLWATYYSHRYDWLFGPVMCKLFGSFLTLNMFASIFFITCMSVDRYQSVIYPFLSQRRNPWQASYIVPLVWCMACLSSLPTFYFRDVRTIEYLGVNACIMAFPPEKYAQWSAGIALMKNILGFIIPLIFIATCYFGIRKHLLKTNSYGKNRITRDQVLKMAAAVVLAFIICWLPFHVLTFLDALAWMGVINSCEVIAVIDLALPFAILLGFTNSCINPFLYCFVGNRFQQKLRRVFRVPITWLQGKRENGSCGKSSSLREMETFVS
Experimental: as §2, §3, §4, §5
from cerebellar cortex in bovine
tracer: ^125 I-Tyr^4 -angiotensin II

For `CCCN(Cc1ccc(-c2ccccc2-c2nnn[nH]2)cc1)c1ncccc1C(=O)O` [A-81988, 2-[N-propyl-N-[[2'-(1H-tetrazol-5-yl)biphenyl-4-yl]methyl]amino]pyridine-3-carboxylic acid], the blood pressure [1] is given as “the reduction of blood pressure was observed” and the proteinuria [1] is given as “proteinuria was improved”.
For `CCCCc1nc(Cl)c(CO)n1Cc1ccc(-c2ccccc2-c2nnn[nH]2)cc1` [DuP753, 2-butyl-4-chloro-5-(hydroxymethyl)-1-[[2'-(1H-tetrazol-5-yl)biphenyl-4-yl]methyl]imidazole], the “action to depress blood pressure (in words)” value ([2]; comparison with control group) is listed as “clearly showed the action to depress the blood pressure”, the blood pressure (hyperlipemia model rats; large dose more effective against the kidney disease) is listed as “an evident reduction of blood pressure was observed” and the blood pressure (hyperlipemia model rats; lower dose) is listed as “without practical effect to blood pressure”. For the same compound, the “effect on kidney disease” value (hyperlipemia model rats; lower dose) was “the kidney disease was improved”, the blood pressure [3] was “the reduction of blood pressure accompanied” and the “effect on proteinuria and glomerulosclerosis” value [3] was “effective against proteinuria and glomerulosclerosis”.
In the case of `CCCCC(=O)Nc1c(Cl)ncnc1NCc1ccc(C(=O)OC)cc1` [Compound No. 1, methyl 4-[[(6-chloro-5-valeramido)pyrimidin-4-yl]aminomethyl]benzoate], the “Blood pressure (average systolic)” value ([2]; after two days, control 210 mmHg) is reported as 210 mmHg, the inhibition at 100 µM [4] is reported as 11% and the Average survival time [5] is reported as 6.9 weeks. For the same compound, the “Number of deaths/number of survivals” value [6] was 0/5, the “Creatinine clearance (CCr)” value ([7]; control 0.20) was 0.29 mL/min and the “Creatinine (serum, Scr)” value ([7]; control 2.0) was 1.7 mg/dL. The “Urea nitrogen (BUN)” value ([7]; control 100) was 84 mg/dL and the inhibition at 100 µM [8] was 0%.
